Values quoted from earlier work, collected in patent US11957648B2, “Method of initiating or escalating dofetilide dose and formulations therefor” (Academic Pharmaceuticals, Inc., priority 2018, dated 2024).

Key:
QTc interval = settings: slope of plasma concentration vs QTc; Sedgwick et al; cited from earlier work
[1] = oral dosing; cited from earlier work

CN(CCOc1ccc(NS(C)(=O)=O)cc1)CCc1ccc(NS(C)(=O)=O)cc1 [Dofetilide, β-((p-methanesulfonamidophenethyl)methylamino)methanesulfono-p-phenetidide]
QTc change per dofetilide plasma concentration (QTc interval): 15 to 25 ms/ng/mL
time to reach steady state concentration [1]: at least 3 days
